Measured values published in patent publication US20240158446A1, “CYCLIC COMPOUND HAVING SELECTIVE INHIBITORY ACTION ON KRAS OVER HRAS AND NRAS” (CHUGAI SEIYAKU KABUSHIKI KAISHA, priority 2021, published 2024).
Like-named read-outs stand apart in the source and are kept apart here. Where a SMILES comes first, the peptide text is derived from it. Bridges are numbered along the chain shown (N, C = ends). [ ]: non-standard residue; d: D form. The star is where a group is joined. hPhe(3-Cl-4-CF3) = N[C@@H](CCc1ccc(C(F)(F)F)c(Cl)c1)C(=O)O; NPrPhe(4-CF3) = CCCN[C@@H](Cc1ccc(C(F)(F)F)cc1)C(=O)O; NPrPhe(4-Me) = CCCN[C@@H](Cc1ccc(C)cc1)C(=O)O; NMeGly(cPent) = CN[C@H](C(=O)O)C1CCCC1; NMeD = CN[C@@H](CC(=O)O)C(=O)O; NMeL = CN[C@@H](CC(C)C)C(=O)O; Morpholide = C1CN(*)CCO1; NMeA = CN[C@@H](C)C(=O)O; Ac5c = NC1(C(=O)O)CCCC1; Aze = O=C(O)[C@@H]1CCN1; Sar = CNCC(=O)O

Assays:
[1] = molecular target: GDP-bound NRAS wild-type protein (Homo sapiens, UniProt P01111); test: Binding to NRAS by surface plasmon resonance (SPR), Single Cycle Kinetics; conditions: SPR, GDP-bound NRAS wild-type protein vs GDP-bound KRAS wild-type protein
[2] = molecular target: GDP-bound KRAS wild-type protein (Homo sapiens, UniProt P01116); test: Binding to KRAS by surface plasmon resonance (SPR), Single Cycle Kinetics; conditions: GDP-bound KRAS wild-type protein, read-out: KRAS KD
[3] = molecular target: GDP-bound HRAS wild-type protein (Homo sapiens, UniProt P01112); test: Binding to HRAS by surface plasmon resonance (SPR), Single Cycle Kinetics; conditions: SPR, GDP-bound HRAS wild-type protein vs GDP-bound KRAS wild-type protein
[4] = SPR Single Cycle Kinetics, 1:1 binding model

Chain of GDP-bound NRAS wild-type protein (P01111 whole entry): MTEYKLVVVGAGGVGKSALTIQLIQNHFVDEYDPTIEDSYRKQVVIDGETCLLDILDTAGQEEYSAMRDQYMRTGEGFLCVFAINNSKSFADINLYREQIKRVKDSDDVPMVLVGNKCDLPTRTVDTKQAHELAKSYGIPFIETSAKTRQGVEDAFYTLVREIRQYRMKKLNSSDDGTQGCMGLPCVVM
Chain of GDP-bound KRAS wild-type protein (P01116 whole entry): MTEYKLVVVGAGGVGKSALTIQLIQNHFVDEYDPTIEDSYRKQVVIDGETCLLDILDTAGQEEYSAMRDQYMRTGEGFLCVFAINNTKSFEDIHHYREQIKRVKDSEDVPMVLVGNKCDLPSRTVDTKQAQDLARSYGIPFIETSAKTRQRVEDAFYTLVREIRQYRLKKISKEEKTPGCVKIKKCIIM
Chain of GDP-bound HRAS wild-type protein (P01112 whole entry): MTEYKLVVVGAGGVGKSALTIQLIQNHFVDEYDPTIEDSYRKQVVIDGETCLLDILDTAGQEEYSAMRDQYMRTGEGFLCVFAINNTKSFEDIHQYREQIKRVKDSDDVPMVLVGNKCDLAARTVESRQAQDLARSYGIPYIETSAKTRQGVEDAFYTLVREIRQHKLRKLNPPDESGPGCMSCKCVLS

Row | Compound | NRAS/KRAS (ratio of KD value with respect to NRAS to KD value with respect to KRAS) [1] | Kd [2, 4] | HRAS/KRAS (ratio of KD value with respect to HRAS to KD value with respect to KRAS) [3] | NRAS/KRAS (ratio of KD value for NRAS to KD value for KRAS) [1] | Kd ([2]; SPR, Single Cycle Kinetics) | HRAS/KRAS (ratio of KD value for HRAS to KD value for KRAS) [3]
1 | CCO[C@@H]1C[C@H]2C(=O)NC3(CC=CC3)C(=O)N(C)[C@@H](C3CCCC3)C(=O)N(C)[C@H](C(=O)N3CCOCC3)CC(=O)N(C)[C@@H](CC(C)C)C(=O)N[C@@H]([C@@H](C)CC)C(=O)N(C)CC(=O)N(C)[C@H]3CCCCCN(C3=O)[C@@H](Cc3ccc(C(F)(F)F)cc3)C(=O)N(C)CC(=O)N[C@@H](CCc3cc(F)c(C(F)(F)F)c(F)c3)C(=O)N2C1 [PP0727] | B (a compound having 3 or more and less than 10 is denoted as B) | 1.3 nM | B (a compound having 3 or more and less than 10 is denoted as B) |  |  | 
2 | CCO[C@@H]1C[C@H]2C(=O)NC3(CC(C)(C)C3)C(=O)N(C)[C@@H](C(CC)CC)C(=O)N(C)[C@H](C(=O)N(C)C)CC(=O)N(C)[C@@H](C(C)C)C(=O)N[C@@H]([C@@H](C)CC)C(=O)N(C)CC(=O)N(C)[C@H]3C/C=C\CCN(C3=O)[C@@H](Cc3ccc(C(F)(F)F)cc3)C(=O)N(C)CC(=O)N[C@@H](CCc3ccc(C(F)(F)F)c(Cl)c3)C(=O)N2C1 [PP2140] |  |  |  | AA (a compound having 20 or more is denoted as AA) | 0.7 nM | A (a compound having 10 or more and less than 20 is denoted as A)
3 | CC[C@H](C)[C@@H]1NC(=O)[C@H](CC(C)C)N(C)C(=O)C[C@@H](C(=O)N2CCOCC2)N(C)C(=O)[C@H](C2CCC2)N(C)C(=O)C2(CCCC2)NC(=O)[C@@H]2CCCN2C(=O)[C@H](CCc2cc(F)c(C(F)(F)F)c(F)c2)NC(=O)CN(C)C(=O)[C@H](Cc2ccc(C(F)(F)F)cc2)N2CCCC[C@@H](C2=O)N(C)C(=O)CN(C)C1=O [PP0566] | B (a compound having 3 or more and less than 10 is denoted as B) | 0.29 nM | B (a compound having 3 or more and less than 10 is denoted as B) |  |  | 
4 | CCCN1C(=O)CN(C)C(=O)CN(C)C(=O)[C@H]([C@@H](C)CC)NC(=O)[C@H](CC(C)C)N(C)C(=O)C[C@@H](C(=O)N2CCOCC2)NC(=O)[C@H](C2CCCC2)N(C)C(=O)C2(CCCC2)NC(=O)[C@@H]2CCCN2C(=O)[C@H](CCc2ccc(C(F)(F)F)c(Cl)c2)NC(=O)CN(C)C(=O)[C@@H]1Cc1ccc(C(F)(F)F)cc1 [PP0146] ([NMeL]I[Sar][Sar][NPrPhe(4-CF3)][Sar][hPhe(3-Cl-4-CF3)]P[Ac5c][NMeGly(cPent)]D-Morpholide; lactam N-11) |  | 0.42 nM |  | B (a compound having 3 or more and less than 10 is denoted as B) |  | B (a compound having 3 or more and less than 10 is denoted as B)
5 | CCCOC[C@H]1C(=O)N[C@@H]([C@@H](C)CC)C(=O)N2CCC[C@H]2C(=O)N(C)[C@H]2C/C=C\CCN(C2=O)[C@@H](Cc2ccc(C)cc2)C(=O)N(C)CC(=O)N[C@@H](CCc2ccc(C(F)(F)F)c(OC)c2)C(=O)N2C[C@H](OCC)C[C@H]2C(=O)N(C)C2(CCC2)C(=O)N(C)[C@@H](C2CCCC2)C(=O)N(C)[C@H](C(=O)N(C)C)CC(=O)N1C [PP2334] |  |  |  | A (a compound having 10 or more and less than 20 is denoted as A) | 0.13 nM | B (a compound having 3 or more and less than 10 is denoted as B)
6 | CCO[C@@H]1C[C@H]2C(=O)NC3(CCC3)C(=O)N(C)[C@@H](C3CCCC3)C(=O)N(C)[C@H](C(=O)N(C)C)CC(=O)N(C)[C@@H](CC)C(=O)N[C@@H]([C@@H](C)CC)C(=O)N(C)CC(=O)N(C)[C@H]3CCCCN(C3=O)[C@@H](Cc3ccc(C(F)(F)F)cc3)C(=O)N(C)CC(=O)N[C@@H](CCc3cc(Cl)c(C(F)(F)F)c(Cl)c3)C(=O)N2C1 [PP0985] |  |  |  | C (A compound having a KD ratio of 0.1 or more and less than 3 is denoted as C) | 0.022 nM | C (A compound having a KD ratio of 0.1 or more and less than 3 is denoted as C)
7 | CCO[C@@H]1C[C@H]2C(=O)NC3(CCC3)C(=O)N(C)[C@@H](C3CCCC3)C(=O)N(C)[C@H](C(=O)N(C)C)CC(=O)N(C)[C@@H](CSC)C(=O)N[C@@H]([C@@H](C)CC)C(=O)N(C)CC(=O)N(C)[C@H]3C/C=C\CCN(C3=O)[C@@H](Cc3ccc(C(F)(F)F)cc3)C(=O)N(C)CC(=O)N[C@@H](CCc3cc(F)c(C(F)(F)F)c(F)c3)C(=O)N2C1 [PP1119, (2S,8S,12R,14S,20S,23S,27R,30S,36S,38Z)-20-cyclopentyl-8-[2-[3,5-difluoro-4-(trifluoromethyl)phenyl]ethyl]-12-ethoxy-N,N,4,19,22,26,32,35-octamethyl-30-[(1S)-1-methylpropyl]-27-(methylsulfanylmethyl)-3,6,9,15,18,21,25,28,31,34,42-undecaoxo-2-[[4-(trifluoromethyl)phenyl]methyl]spiro[1,4,7,10,16,19,22,26,29,32,35-undecazatricyclo[34.5.1.0^10,14]dotetracont-38-ene-17,1′-cyclobutane]-23-carboxamide] |  |  |  | A (a compound having 10 or more and less than 20 is denoted as A) | 0.037 nM | A (a compound having 10 or more and less than 20 is denoted as A)
8 | CCO[C@@H]1C[C@H]2C(=O)NC3(CCC3)C(=O)N(C)[C@@H](C3CCCC3)C(=O)N(C)[C@H](C(=O)N3CCC3)CC(=O)N(C)[C@@H](CC)C(=O)N[C@@H]([C@@H](C)CC)C(=O)N(C)CC(=O)N(C)[C@H]3C/C=C\CCN(C3=O)[C@@H](Cc3ccc(C(F)(F)F)cc3)C(=O)N(C)CC(=O)N[C@@H](CCc3cc(F)c(C(F)(F)F)c(F)c3)C(=O)N2C1 [PP1091, (2S,8S,12R,14S,20S,23S,27S,30S,36S,38Z)-23-(azetidine-1-carbonyl)-20-cyclopentyl-8-[2-[3,5-difluoro-4-(trifluoromethyl)phenyl]ethyl]-12-ethoxy-27-ethyl-4,19,22,26,32,35-hexamethyl-30-[(1S)-1-methylpropyl]-2-[[4-(trifluoromethyl)phenyl]methyl]spiro[1,4,7,10,16,19,22,26,29,32,35-undecazatricyclo[34.5.1.0^10,14]dotetracont-38-ene-17,1′-cyclobutane]-3,6,9,15,18,21,25,28,31,34,42-undecone] |  |  |  | A (a compound having 10 or more and less than 20 is denoted as A) | 0.11 nM | B (a compound having 3 or more and less than 10 is denoted as B)
9 | CCCN1C(=O)[C@@H]2CCN2C(=O)[C@H](C)N(C)C(=O)[C@H]([C@@H](C)CC)NC(=O)[C@H](CC(C)C)N(C)C(=O)C[C@@H](C(=O)N2CCOCC2)N(C)C(=O)[C@H](C2CCCC2)N(C)C(=O)C2(CCCC2)NC(=O)[C@@H]2CCCN2C(=O)[C@H](CCc2ccc(C(F)(F)F)c(Cl)c2)NC(=O)CN(C)C(=O)[C@@H]1Cc1ccc(C)cc1 [PP0052] ([NMeL]I[NMeA][Aze][NPrPhe(4-Me)][Sar][hPhe(3-Cl-4-CF3)]P[Ac5c][NMeGly(cPent)][NMeD]-Morpholide; lactam N-11) |  | 0.12 nM |  | C (A compound having a KD ratio of 0.1 or more and less than 3 is denoted as C) |  | B (a compound having 3 or more and less than 10 is denoted as B)
10 | CC[C@H](C)[C@@H]1NC(=O)[C@H](C)N(C)C(=O)C[C@@H](C(=O)N(C)C)N(C)C(=O)[C@H](C2CCCC2)N(C)C(=O)C2(CCC2)NC(=O)[C@@H]2CCCN2C(=O)[C@H](CCc2cc(F)c(C(F)(F)F)c(F)c2)NC(=O)CN(C)C(=O)[C@H](Cc2ccc(C(F)(F)F)cc2)N2CCCC[C@@H](C2=O)N(C)C(=O)CN(C)C1=O [PP0581] | C (A compound having a KD ratio of 0.1 or more and less than 3 is denoted as C) | 0.02 nM | B (a compound having 3 or more and less than 10 is denoted as B) |  |  | 
11 | CCC[C@H]1C(=O)N[C@@H](C2CCCC2)C(=O)N(C)CC(=O)N(C)[C@H]2C/C=C\CCN(C2=O)[C@@H](Cc2ccc(C)cc2)C(=O)N(C)CC(=O)N[C@@H](CCc2ccc(C(F)(F)F)c(Cl)c2)C(=O)N2C[C@H](OCC)C[C@H]2C(=O)NC2(CC(C)(C)C2)C(=O)N(C)[C@@H](CC(C)(C)C)C(=O)N(C)[C@H](C(=O)N(C)C)CC(=O)N1C [PP2196] |  |  |  | A (a compound having 10 or more and less than 20 is denoted as A) | 0.24 nM | B (a compound having 3 or more and less than 10 is denoted as B)
12 | CCC[C@H]1C(=O)N[C@@H]([C@@H](C)CC)C(=O)N(C)CC(=O)N(C)[C@H]2C/C=C\CCN(C2=O)[C@@H](Cc2ccc(C(F)(F)F)cc2)C(=O)N(C)CC(=O)N[C@@H](CCc2ccc(C(F)(F)F)c(Cl)c2)C(=O)N2C[C@H](OCC)C[C@H]2C(=O)NC2(CC(C)(C)C2)C(=O)N(C)[C@@H]([C@@H](C)CC)C(=O)N(C)[C@H](C(=O)N(C)C)CC(=O)N1C [PP2973] |  |  |  | A (a compound having 10 or more and less than 20 is denoted as A) | 0.18 nM | A (a compound having 10 or more and less than 20 is denoted as A)
